The text below walks through data of patent publication US20240315986A1, “PHARMACEUTICAL COMPOSITION FOR TREATMENT OF MULTIPLE SYSTEM ATROPHY” (THE UNIVERSITY OF TOKYO, priority 2021, published 2024).

The structures appear in SMILES notation. Where two headings read alike, the source gives them in different places.

The conditions of data set [1]: intravenous administration to a rat; cited from earlier work.
The conditions of data set [2]: oral administration to a human; cited from earlier work.
Data set [3] relates to multiple system atrophy patients. As to the kind of experiment: Phase 2 clinical trial of MSA-01 in multiple system atrophy patients. It counts as in vivo, human. How it is done: For a group of 21 patients with COQ2 mutation and a group of 108 patients without COQ2 mutation, 61 patients were administered with the MSA-01 and 68 patients were administered with the placebo for each group. Among 129 patients in total in the patient groups, 99 patients had the MSA-C and 30 patients had the MSA-P. The 129 patients who were confirmed to be eligible during 4-week observation period were randomly assigned to be administered with the MSA-01 or the placebo once per day after breakfast (doses of the MSA-01 or the placebo ascend every 2 weeks to 300, 600, 900, 1,200, and 1,500 mg/day, FIG. 2), and evaluation items according to main evaluation items were measured at Weeks 12, 24, 36, and 48.
Changes (LS means) of UMSARS part 2 scores at Weeks 12, 24, 36, and 48 from the baseline (unified multiple-system atrophy rating scale part 2; Wenning G K, Tison F, Seppi K, et al. Development and validation of the Unified Multiple System Atrophy Rating Scale (UMSARS). Mov Disord [Internet] 2004; 19(12):1391-402) were evaluated. […] Results are shown in FIG. 3A (at Weeks 12, 24, 36, and 48) and FIG. 4 (at Week 48).
Changes (LS mean) of a UMSARS part 1 score (unified multiple-system atrophy rating scale part 1; Wenning G K, Tison F, Seppi K, et al. Development and validation of the Unified Multiple System Atrophy Rating Scale (UMSARS). Mov Disord [Internet] 2004; 19(12):1391-402), the Barthel index (Barthel index: Mahoney F I, Barthel D W. Functional evaluation: The Barthel index. Md State Med J [Internet] 1965; 14:61-5. Available from:http://www.ncbi.nlm.nih.gov/pubmed/14258950) (FIG. 3B), a SARA score (Schmitz-Huebsch T, du Montcel S T, Baliko L, Berciano J, Boesch S, Depondt C, Giunti P, Globas C, Infante J, Kang J S, Kremer B, Mariotti C, Melegh B, Pandolfo M, Rakowicz M, Ribai P, Rola R, Schoels L, Szymanski S, van de Warrenburg B P, Duerr A, Klockgether T, Fancellu R. Scale for the assessment and rating of ataxia:development of a new clinical scale. Neurology. 2006 Jun. 13; 66(11):1717-20. doi: 10.1212/01.wnl.0000219042.60538.92), and a 10-meter walking time (second) at Week 48 from baselines was evaluated (FIG. 4).

Data set [4] can be described thus: Phase 1 clinical trial: plasma concentration of drug in repeated oral administration for 14 days. It counts as in vivo, human. To be noted: for Maximum plasma concentration of the MSA-01: 6 hours after repeated oral administration for 14 days (318 hour). As for the experimental part: (Measurement of Plasma Concentration of Drug in Repeated Oral Administration for 14 Days)
The MSA-01 was subjected to the oral administration to healthy subjects at doses of 900 mg, 1,200 mg, and 1,500 mg repeatedly for 14 days. […] Maximum plasma concentrations of the MSA-01 detected were 10.24, 9.38, and 15.22 μg/mL in 900 mg, 1,200 mg, and 1,500 mg groups, respectively, in measurement after 6 hours from the repeated oral administration for 14 days (a value at 318 hour in FIG. 1). Published baselines of the plasma concentration of the ubiquinol are 0.87 and […] (% Reduced CoQ10: 98.9 and 85%) (Langsjoen, et al. Comparison study of plasma coenzyme Q10 levels in healthy subjects supplemented with ubiquinol versus ubiquinone. Clin Pharmacol Drug Dev. 2014; 3(1):13-17, Onur et al. Determination of the coenzyme Q10 status in a large Caucasian study population. Biofactors 2015; 41(4):211-21), and it is estimated that MSA-01 in the plasma increased about 20-fold from the baselines in the 1500 mg group in the test.

Data set [5] relates to familial MSA patient. Conditions: cited from earlier work.
The conditions of data set [6]: cited from earlier work.
Where [7] appears, read: Week 48, compared to the placebo group.
Setting [8] is: first cited value (Langsjoen et al. 2014).
The mark [9] stands for this setting: second cited value (Onur et al. 2015).

On to `COC1=C(OC)C(=O)C(C/C=C(\C)CC/C=C(\C)CC/C=C(\C)CC/C=C(\C)CC/C=C(\C)CC/C=C(\C)CC/C=C(\C)CC/C=C(\C)CC/C=C(\C)CCC=C(C)C)=C(C)C1=O` [ubiquinone], for which the “ubiquinol (reduced) present in plasma after ubiquinone administration” value in data set [1] and in data set [2] was at least 95% in each case.

For the compound `COC1=C(OC)C(O)C(C/C=C(\C)CC/C=C(\C)CC/C=C(\C)CC/C=C(\C)CC/C=C(\C)CC/C=C(\C)CC/C=C(\C)CC/C=C(\C)CC/C=C(\C)CCC=C(C)C)=C(C)C1O` (stereo not shown) [MSA-01, 2-[(2E,6E,10E,14E,18E,22E,26E,30E,34E)-3,7,11,15,19,23,27,31,35,39-decamethyltetraconta-2,6,10,14,18,22,26,30,34,38-decaenyl]-5,6-dimethoxy-3-methylcyclohexa-2,5-diene-1,4-diol], in data set [3] (setting [7]), the “Change (LS mean) of 10-meter walking time from baseline” value was “effects were shown”, the “Change (LS mean) of SARA score from baseline” value was “effects were shown” and the “Change (LS mean) of the Barthel index from baseline” value is “effects were shown”. In data set [3] (Week 48, 95% confidence interval −3.24 to −0.24, P=0.023), the “difference of LS mean change of UMSARS part 2 score, MSA-01 group versus placebo group” value is −1.74. In data set [3] (Week 48, MSA-01 ascending to 1,500 mg/day oral once per day, placebo 7.14), the “Change (LS mean) of UMSARS part 2 score from the baseline” value came to 5.40. In addition, the “Maximum plasma concentration of the MSA-01” value (“Maximum plasma concentration” below) in data set [4] (900 mg group) was 10.24 µg/mL. Further, the “Maximum plasma concentration” value in data set [4] (1,200 mg group) worked out at 9.38 µg/mL. Besides, the “increase of MSA-01 in the plasma from the baselines” value in data set [4] (1500 mg group, versus published baselines) was “about 20 fold”. In addition, the “Maximum plasma concentration” value in data set [4] (1,500 mg group) is 15.22 µg/mL. Moreover, the “plasma concentration of the MSA-01 until 24 hours after the administration” value in data set [4] (healthy subjects, oral 900, 1,200 and 1,500 mg, quantification limit printed 1 g/mL) is “extremely low”. In addition, in data set [4] (healthy subjects, repeated oral administration 900-1,500 mg), the “time of repeated administration to reach steady state of plasma concentration” value was “about 7 days”. Also, the clinical evaluation scale entry in data set [5] (600 mg 2 weeks, 840 mg 2 weeks, 1,200 mg 2 weeks, once per day from a gastrostomy tube) is given as “no statistically significant changes”. For the same compound, in data set [5] (one familial MSA patient, ubiquinol above conventional dose), the “brain oxygen consumption rate” value is listed as “improved brain oxygen consumption rate”. In data set [6] (setting [8]), the “% Reduced CoQ10” value is recorded as 98.9% and the Published baseline of the plasma concentration of the ubiquinol is 0.87 µg/mL. In data set [6] (setting [9]), the “% Reduced CoQ10” value is listed as 85% and the Published baseline of the plasma concentration of the ubiquinol is 0.66 µg/mL.
